Where two headings read alike, the source gives them in different places.
Assays:
[1] = test system: HCT-116 colon tumor cells; test: Cell growth inhibition (CellTiter-Glo), HCT-116 colon tumor cells expressing mutant Ras; format: cell-based, human; details: for HT-29/HCT-116 selectivity values: ratio IC50 HT-29 (WT Ras) / IC50 HCT-116 (mutant Ras), 5000 cells/well, 96-well plates
Protocol: This example illustrates cell growth assays employed in the present invention. […] Normal rat kidney (NRK) and Ki-Ras transformed NRK cells (K-NRK) were obtained from ATCC, and were cultured according to supplier recommendations. CellTiter-Glo ATP cell growth assay reagents were obtained from Promega and used according to the manufacturer's protocol. Inhibitors of EGFR, Raf, and MEK were obtained from Selleck Chemicals. Cells were plated at a density of 5,000 cells per well in 96-well microplates or 1,250 cells per well in 384-well plates, and allowed to attach for at least 4 h. Test compounds were dissolved in dimethyl sulfoxide (DMSO), and this working stock was further diluted in growth medium for addition to cell cultures. Serial dilutions of the test compound were prepared in growth medium containing an equal amount of DMSO not exceeding 0.2% final concentration. Each compound concentration was tested in at least 3 separate samples per cell line. At the end of a 3-day treatment period, growth inhibition was analyzed using a bioluminescent assay of ATP concentration (Promega CellTiter-Glo) according to the manufacturer's protocol. Resulting luminescence was measured using the luminescence cartridge of the Molecular Devices Spectramax Paradigm microplate reader. Relative growth inhibition for each sample was determined by comparison with the values obtained for vehicle treated control samples. […] This example illustrates use of well-established human colon tumor cell lines with widely divergent Ras activation status to determine selectivity values for exemplary compounds of the present invention. […] Cells were plated at 5000 cells/well in 96-well plates, and viable cell numbers were measured using the Cell Titer Glo ATP luminescence assay (Promega). […] Cells were seeded in 384-well plates and allowed to attach. Ten-fold serial dilutions of compounds were tested. Each compound concentration was tested in at least 3 separate samples per cell line.

SW-480 cells = test: Cell growth inhibition (CellTiter-Glo), SW-480 colorectal cells with activated Ras; format: cell-based, human; details: for IC50: 384-well plates; for Selectivity Caco-2/SW-480: ratio IC50 Caco-2 (WT Ras) / IC50 SW-480 (Ras activated)
Protocol: (§1) This example illustrates cell growth assays employed in the present invention.
(§2) Normal rat kidney (NRK) and Ki-Ras transformed NRK cells (K-NRK) were obtained from ATCC, and were cultured according to supplier recommendations. CellTiter-Glo ATP cell growth assay reagents were obtained from Promega and used according to the manufacturer's protocol. Inhibitors of EGFR, Raf, and MEK were obtained from Selleck Chemicals. Cells were plated at a density of 5,000 cells per well in 96-well microplates or 1,250 cells per well in 384-well plates, and allowed to attach for at least 4 h. Test compounds were dissolved in dimethyl sulfoxide (DMSO), and this working stock was further diluted in growth medium for addition to cell cultures. Serial dilutions of the test compound were prepared in growth medium containing an equal amount of DMSO not exceeding 0.2% final concentration. Each compound concentration was tested in at least 3 separate samples per cell line. At the end of a 3-day treatment period, growth inhibition was analyzed using a bioluminescent assay of ATP concentration (Promega CellTiter-Glo) according to the manufacturer's protocol. Resulting luminescence was measured using the luminescence cartridge of the Molecular Devices Spectramax Paradigm microplate reader. Relative growth inhibition for each sample was determined by comparison with the values obtained for vehicle treated control samples. Growth inhibition values were plotted with the GraphPad Prism5 software using the 4-parameter logistic fit to obtain IC50 values, which corresponds to the growth inhibitory potency of the compound.
The growth inhibitory activity of the compounds was tested using the CellTiter-Glo assay. Cells were seeded in 384-well plates and allowed to attach, then ten-fold serial dilutions of compounds were tested. Each concentration was tested in at least 3 separate samples per cell line.
(§3) Cells were seeded in 384-well plates and allowed to attach. Ten-fold serial dilutions of compounds were tested. Each compound concentration was tested in at least 3 separate samples per cell line.

A549 lung cancer cells = test: Cell growth inhibition (CellTiter-Glo ATP assay), A549 cells with mutant K-Ras; format: cell-based, human; details: for IC50: Homo sapiens, A549, 72 h, growth inhibition, three days treatment, K-Ras mutant lung cancer cells, read-out: A549 (Ras-activated) IC50; for Selectivity HT-29/A549: ratio IC50 HT-29 (WT Ras) / IC50 A549 (Ras-activated)
Protocol: This example illustrates cell growth assays employed in the present invention. Cells used in such assays included A-549, HT-29, MDA-MB-231, Colo-205, Caco2, HCT-116, SW-480, and DLD-1 human cancer cells obtained from the American Type Culture Collection (ATCC).
as §2, with “Human tumor cells were cultured using standard methods in RPMI-1640 growth medium supplemented with 5% fetal bovine serum (FBS). Normal” for “Normal”
(§4) This example illustrates effects of exemplary compounds of the present invention on cancer cells having activated or mutated Ras compared to wild-type (WT) Ras. […] A549 lung cancer cells, which harbor a mutation in the K-Ras oncogene were treated for three days with the compounds.

Caco-2 cells = test: Cell growth inhibition (CellTiter-Glo), Caco-2 colorectal cells with wild-type Ras; format: cell-based, human; details: 384-well plates
HT-29 colon cancer cells = test: Cell growth inhibition (CellTiter-Glo ATP assay), HT-29 cells with wild-type Ras; format: cell-based, human
Protocol: as §1, §2, §4, §3

DLD-1 cells = test: Cell growth inhibition (CellTiter-Glo), DLD-1 colorectal cells; format: cell-based, human; details: known Ras pathway inhibitors, 384-well plates, Table 4
[2] = test system: panel of colorectal cancer cell lines; test: Growth inhibition of known Ras pathway inhibitors across the colorectal cell line panel, pattern versus Ras activation; format: cell-based, human; details: HCT-116, DLD-1, SW-480, Caco-2, HT-29, COLO-205 panel
Protocol: This example illustrates non-selective growth inhibition with known Ras pathway inhibitors which are not compounds of the present invention. In particular, the growth inhibitory activity of commercially available compounds which are active in the Ras signal transduction pathway were tested in the same panel of cell lines using the CellTiter-Glo assay. Cells were seeded in 384-well plates and allowed to attach. Ten-fold serial dilutions of compounds were tested. Each compound concentration was tested in at least 3 separate samples per cell line.

COLO-205 cells = test: Cell growth inhibition (CellTiter-Glo), COLO-205 colorectal cells; format: cell-based, human; details: known Ras pathway inhibitors, 384-well plates, Table 4
[3] = test system: cells expressing oncogenic H-Ras; details: NIH probe report, cited from earlier work
[4] = Homo sapiens, SW480, growth inhibition, Table 3, read-out: SW-480 (Ras Activated IC50)
[5] = Homo sapiens, Caco-2, growth inhibition, Table 3, read-out: Caco-2 (WT Ras) IC50
[6] = Homo sapiens, HT-29, growth inhibition, colon cancer cells with wild-type Ras, Table 2, read-out: HT-29 (WT Ras) IC50

Row | IC50 (SW-480 cells; [4]) | IC50 (A549 lung cancer cells) | IC50 (Caco-2 cells; [5]) | IC50 (HT-29 colon cancer cells; [6]) | Structure (SMILES) | HT-29/HCT-116 selectivity values [1] | Selectivity Caco-2/SW-480 (SW-480 cells) | Selectivity HT-29/A549 (A549 lung cancer cells) | other results
1 | 21.3 nM | 15 nM | 47.6 nM | 2940 nM | COc1cc(/C=C2/C(C)=C(CC(=O)NCc3cccnc3)c3cc(F)ccc32)cc(OC)c1O [Compound 011, (Z)-2-(5-fluoro-1-(4-hydroxy-3,5-dimethoxybenzylidene)-2-methyl-1H-inden-3-yl)-N-(pyridin-3-ylmethyl)acetamide] | 168 | 2 | 196 | –
2 | – | – | – | – | Cn1cnc2c(F)c(Nc3ccc(Br)cc3Cl)c(C(=O)NOCCO)cc21 [Selumetinib] | – | – | – | IC50 (DLD-1 cells; Homo sapiens, DLD-1): 20400 nM
3 | 2.85 nM | 11 nM | 428 nM | 8130 nM | COc1ccc2c(c1)C(CC(=O)NCc1ccco1)=C(C)/C2=C/c1cc(OC)c(O)c(OC)c1 [Compound 006, (Z)—N-(furan-2-ylmethyl)-2-(1-(4-hydroxy-3,5-dimethoxybenzylidene)-5-methoxy-2-methyl-1H-inden-3-yl)acetamide] | 43 | 150 | 739 | –
4 | – | – | – | – | O=C1Nc2ccc(I)cc2/C1=C/c1cc(Br)c(O)c(Br)c1 [GW5074, reference compound] | – | – | – | selectivity with regard to Ras activation [2]: did not show selectivity; IC50 (COLO-205 cells): 7100 nM; IC50 ([1]; known Ras pathway inhibitors, 384-well plates, Table 4): 15800 nM; IC50 (DLD-1 cells): 7750 nM; IC50 (SW-480 cells; known Ras pathway inhibitors, Table 4, read-out: SW-480 IC50): 8070 nM; IC50 (Caco-2 cells; known Ras pathway inhibitors, Table 4, read-out: Caco-2 IC50): > 20000 nM; IC50 (HT-29 colon cancer cells; known Ras pathway inhibitors, 384-well plates, Table 4, read-out: HT-29 IC50): 19100 nM
5 | – | – | – | – | Cc1onc(C(=O)N2CCN(C(c3ccc(Cl)cc3)c3ccc(Cl)cc3)CC2)c1[N+](=O)[O-] [ML210] | – | – | – | selectivity versus cells lacking oncogenic Ras [3]: 4 fold; IC50 ([3]; read-out: IC50, growth of cells expressing mutant Ras): 71 nM
6 | 0.37 nM | 0.86 nM | 1.97 nM | 280 nM | COc1cc(/C=C2/C(C)=C(CC(=O)NCc3ccco3)c3cc(F)ccc32)cc(OC)c1O [Compound 007, (Z)-2-(5-fluoro-1-(4-hydroxy-3,5-dimethoxybenzylidene)-2-methyl-1H-inden-3-yl)-N-(furan-2-ylmethyl)acetamide] | 92 | 5 | 326 | –
7 | 2.1 nM | 170 nM | 33.8 nM | 712 nM | COc1cc(/C=C2/C(C)=C(CC(=O)NCc3ccccn3)c3cc(F)ccc32)cc(OC)c1O [Compound 010, (Z)-2-(5-fluoro-1-(4-hydroxy-3,5-dimethoxybenzylidene)-2-methyl-1H-inden-3-yl)-N-(pyridin-2-ylmethyl)acetamide] | 141 | 16 | 4 | –
